In general, viability refers to the share of living cells, or the viability signal relative to a control.

Read-outs that look alike come from different tables or passages of the source. No end group written: not given here.

The conditions of data set [1]: cited from earlier work.
Data set [2] deals with allosteric site on the α7 nicotinic-receptor (Rattus norvegicus, UniProt Q05941). Briefly: Binding affinity for the allosteric site of the α7 nicotinic-receptor, using tests for viability.
The next data set relates to PC12 cells. Briefly: Sulforhodamine B (SRB) cell viability assay. The format is cell-based. Here is the method: (§1) Wild-type PC12 cell were provided by Sigma-Aldrich (St. Louis, MO). The culture was routinely plated in 100 mm dishes (Corning) coated with collagen (2 μg/cm^2) and maintained in growth medium with Minimum Essential Medium Eagle (MEM) supplemented with heat-inactivated 10% horse serum (HS) and 5% foetal bovine serum (FBS), 10 mM HEPES, 2 mM L-Glutamine and 1:400 Penicillin/streptomycin solution. Cells were maintained at 37° C. in a humidified atmosphere 5% CO2 and the medium was replaced every 2 days. For splitting, cells were dislodged from the dish using a pipette with medium, with a portion of these replated onto new cultured dishes. Cells were used between passages 12 and 25.
(§2) The cell viability assay used was the sulforhodamine B (SRB) colorimetric assay for toxicity screening. The day before of the experiment cells were seeded onto collagen-coated 96-well plates in a concentration of 40,000 cells/well. Cell concentration was determined by the Fuchs-Rosenthal chamber. […] After treatment, medium was replaced and cells were fixed by adding 100 μl of 10% Trichloroacetic Acid (TCA) for 1 h at 4° C. Thereafter, cells were washed with H2O and stained with 100 μl of a 0.057% SRB solution in 1% Acetic acid (HAc) for 30 minutes at room temperature. After staining cells were washed with 1% HAc for removing the excess of SRB and then incubated with 200 μl of 10 mM Tris base (pH 10.5) and shake it for 5 minutes to solubilise the protein-bound dye. Measurement of the absorbance took place in a VMax Kinetic Microplate Reader (Molecular Devices) at 490 nm.

In data set [3] the target is T1, α7nAChR (the α7 nicotinic acetylcholine receptor), allosteric site (Rattus norvegicus, UniProt Q05941).
T1 construct: [3H]; host or cells: wild-type PC12 cells
T1 sequence (Q05941 23-502): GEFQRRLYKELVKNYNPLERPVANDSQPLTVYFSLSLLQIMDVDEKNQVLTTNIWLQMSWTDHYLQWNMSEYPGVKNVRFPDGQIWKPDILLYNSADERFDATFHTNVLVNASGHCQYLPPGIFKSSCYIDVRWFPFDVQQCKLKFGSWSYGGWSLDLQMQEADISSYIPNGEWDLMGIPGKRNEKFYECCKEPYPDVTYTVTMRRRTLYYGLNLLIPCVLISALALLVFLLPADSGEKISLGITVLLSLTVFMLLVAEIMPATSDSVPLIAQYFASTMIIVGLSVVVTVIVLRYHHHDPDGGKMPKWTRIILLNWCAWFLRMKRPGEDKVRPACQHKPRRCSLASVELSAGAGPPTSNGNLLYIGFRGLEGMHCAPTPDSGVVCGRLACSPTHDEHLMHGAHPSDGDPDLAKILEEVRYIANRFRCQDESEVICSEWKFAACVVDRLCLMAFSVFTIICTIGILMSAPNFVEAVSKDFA
As to the kind of experiment: [3H] Ivermectin binding assay on PC12 cell membranes.
Protocol: PC12 membranes where obtained to perform binding assays. PC12 cells were grown until confluence on 100 mm plates. Growth medium was removed and ice-cold 50 mM Tris-HCl buffer (pH 7.4) containing 4.5 μg/μ1 aprotinin and 0.1 mM phenylmethylsulphonylfluoride (PMSF) were added. Cells were mechanically detached and pelleted by centrifugation (1040×g) for 4 minutes at 4° C. Pellets were homogenized with a Polytron and centrifuged (13000×g) for 20 minutes at 4° C. The pellets were resuspended in fresh buffer and incubated at 37° C. for 10 minutes to remove endogenous neurotransmitters. The samples were subsequently re-centrifuged. The final pellet was resuspended in buffer and the protein concentration determined using the Bradford Reagent (Sigma-Aldrich, St. Louis, MO). The cell membrane preparation was stored at −80° C.
For the binding with PC12 membranes, each incubation was performed in polystyrene tube (VWR International Ltd; Leicestershire, UK) containing 0.25 ml of membranes diluted in Tris-HCl 50 mM buffer (containing 50 μg of PC12 membranes) with 5 nM [3H] […] Thereafter, samples were filtered through Brandel GB glass fibre filters (MD, USA); pre-soaked in 0.5% polyethylenemine by a Harvester (Brandel; MD, USA). Tubes were washed 3 times with ice cold 50 mM Tris-HCl buffer. Radioactivity in the tubes was counted by scintillation spectrometry using a 300 SL Liquid scintillation counter (Lablogic Systems Limited, UK). Specific binding was determined by subtracting the non-specific (cells treated with Ivermectin 30 μM) value to all the tubes.

Data set [4] is described as follows: Sulforhodamine B (SRB) cell viability assay. The class given is cell-based. The note with it: 10 μM, 1 hour, PC12; read-out: cell viability, peptide alone. As for the experimental part: as §1, §2

Chain of allosteric site on the α7 nicotinic-receptor (Q05941 23-502): as above

Take `COc1ccc2c3c1O[C@H]1C[C@@H](O)C=C[C@@]31CCN(C)C2` [Galanthamine]: the “bioavailability periphery (Table 3 feature)” value in data set [1] is “High bioavailability”. Besides, the “binding affinity for the allosteric site on the α7 nicotinic-receptor” value is “low affinity” in data set [2] and 10 µM in data set [2] (listed as galanthamine). The “affinity (Table 3 feature)” value in data set [2] (✓ = Dream Drug feature 'Nanomolar affinity') was “Micromolar affinity”. Besides, in the data set with PC12 cells ('high doses'), the “dose that blocks β-Amyloid (Table 3 feature)” value is “doses (0.1 μM)”. In addition, the “minimum effective concentration against β-Amyloid (10 μM) on cell viability” value in the data set with PC12 cells (PC12, FIG. 8) came to 100 nM. Besides, the “% [3H] Ivermectin binding (Mean ± SEM)” value came out at 100.00 ± 11.48% in data set [3] (100 nM competitor, Table 2, N = 6); 97.86 ± 1.40% in data set [3] (200 nM competitor, Table 2); 90.96 ± 1.87% in data set [3] (500 nM competitor, Table 2); 69.68 ± 9.87% in data set [3] (700 nM competitor, Table 2); 67.17 ± 6.64% in data set [3] (1 μM competitor, Table 2); 66.32 ± 4.29% in data set [3] (2 μM competitor, Table 2).

For AEFHRWSSYMVHWK [T14], in data set [2], the “binding affinity for the allosteric site on the α7 nicotinic-receptor” value is 0.005 µM. Further, the viability at 10 µM in data set [4] turned out to be 83 ± 5.38%. In addition, the “% [3H] Ivermectin binding (Mean ± SEM)” value in data set [3] (1 nM competitor, Table 1) is 100 ± 9.91%; in data set [3] (10 nM competitor, Table 1), 90.92 ± 2.38%; in data set [3] (100 nM competitor, Table 1) it was 88.92 ± 3.82%; in data set [3] (1 μM competitor, Table 1), 85.17 ± 3.03%; in data set [3] (5 μM competitor, Table 1), 85.36 ± 3.96%.

The values above are taken from patent US12139729B2, “Neurodegenerative disorders” (priority 2013, dated 2024).
